# Assay results as given in the METLIN SMRT retention time set (Domingo-Almenara et al. 2019).
# Assay: gradient 5% acetonitrile 3 min, to 50% in 2 min, to 85% in 15 min, held 3 min, 100 µL/min
# Conditions: column: Zorbax Extend-C18 2.1 x 50 mm; eluents: water / acetonitrile, 0.1% formic acid
# In short: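 Each retention time is based on an adduct peak selected computationally and verified by manual inspection. Measurements used HPLC–quadrupole time-of-flight mass spectrometry in positive and negative ionization mode on mixtures of ~100 pure standards. Chromatography ran on a Zorbax Extend-C18 column (2.1 × 50 mm, 1.8 μm) at 100 μL/min with water and acetonitrile, each containing 0.1% formic acid, and dead and dwell volumes of 40 μL and 900 μL.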
row,RP-LC retention time [s],Compound
1,966,CCn1c(C(=O)N2CCCC(C(=O)N3CCc4ccccc4C3)C2)cc2sccc21 (stereo unspecified)
2,1070,CC1(C)CC(=O)c2cn(-c3ccc(F)cc3)c(=O)c(C(=O)Nc3ccccc3F)c2C1
3,1200,CCOc1ccc(-c2cc3c(=O)n(Cc4nc(-c5cccc(Br)c5)no4)ccn3n2)cc1
4,742,Cc1nnc(NC(=O)CN(C)c2nc3c(Cl)cccc3s2)s1
5,621,COCCC1(N(C)C)CCN(C(=O)CC2CCCCC2)CC1
6,610,CCn1nccc1C(=O)N1CC(n2cc(C(=O)N3CCOCC3)nn2)C1
7,923,CCOCCCNC(=O)c1cn(C)nc1S(=O)(=O)N1CCN(c2ccccc2OCC)CC1
8,1020,Cc1ccccc1-c1noc(C2CCCN2C(=O)CNS(=O)(=O)c2ccc(Cl)cc2)n1 (stereo unspecified)
9,853,Cc1oc(-c2ccc(C(=O)NCCCN3CCCC3=O)cc2)nc1CN1CCc2ccccc21
10,835,Cc1ccc(NC(=O)N2CCC(c3nc(C(=O)N4CCCC4)c(C)o3)CC2)cc1F
11,845,COc1ccc(Br)cc1CNC(=O)Cn1cnc2nc3c(cc2c1=O)CC(C)CC3 (stereo unspecified)
12,1040,O=C1N(c2ccc(F)cc2)c2ncccc2S(=O)(=O)N1Cc1ccccc1F
13,1050,CCCn1c(=O)c(C)nc2cc(-c3noc(C4CC(=O)N(c5cccc(Cl)c5)C4)n3)ccc21 (stereo unspecified)
14,1040,COc1ccc2oc(-c3noc(C4CC(=O)N(c5ccccc5)C4)n3)c(C)c2c1 (stereo unspecified)
15,1010,COc1ccc(Cl)cc1NC(=O)NCCC1CCN(S(=O)(=O)c2ccccc2)CC1
16,784,O=C(Nc1ccccc1)N1CCC(n2cnc3cc(Cl)ccc3c2=O)CC1
17,949,Cc1ccc(-c2cc(C(=O)Nc3ccc4c(c3)CCC(=O)N4)c3ccccc3n2)cc1C
18,640,COc1ccc2nc(NC3=NCN(Cc4ccco4)CN3)nc(C)c2c1

row,RP-LC retention time [s],Compound
1,1010,CCS(=O)(=O)N1CC(=O)N(c2ccc(C)c(Cl)c2)C(C)(C(=O)NC2CCCCCC2)C1 (stereo unspecified)
2,732,COCCCNc1c(-c2ccc(C)cc2)nc2sc(C(=O)N(C)C)c(C)n12
3,1080,Cc1cc(C(=O)NCc2ccccc2)nc2cc(-c3cccs3)nn12
4,737,COc1ccc(F)cc1-c1cc(NC(=O)[C@@H]2CCCNC2)ncc1Cl
5,728,CN(C)c1ccc2ncc(=O)n(C)c2n1
6,593,CCCC(C)C(=O)NCCc1nc2cccnc2n1C (stereo unspecified)
7,971,Cc1cc(OCC(=O)Nc2ccccc2C(F)(F)F)nc(N2CCN(c3ccccc3)CC2)n1
8,1250,CCOc1nc2ccccc2nc1N1CCCC(C(=O)Nc2ccccc2OC)C1 (stereo unspecified)
9,715,CNC(=O)C1CN(C(=O)Nc2cc(C)ccc2C)CC12CCCC2 (stereo unspecified)
10,626,CCN(CC)CCCn1c(C)cc2c(c1=O)C(c1ccccc1OC)C(C#N)=C(N)O2 (stereo unspecified)
11,620,CN(C)CCNC(=O)c1cc(-c2ccccc2)nc2ccccc12
12,1170,CC(C)CCNC(=O)c1ccc(Oc2nccnc2N2CCC(C)CC2)cc1
13,788,CCN1c2ccc(C)cc2C(=O)NC12CCN(C(=O)c1ccc(C(F)(F)F)cc1)CC2
14,671,COCCN1CCn2cc(S(=O)(=O)Nc3ccc(C#N)cc3)cc2C1=O
15,1030,O=C1CC(c2noc(-c3ccc(Cl)cc3)n2)CN1c1ccc(F)cc1 (stereo unspecified)
16,632,CN1CCN(C(=O)CN2C(=O)CCCc3cc(S(=O)(=O)N4CCCCCC4)ccc32)CC1
17,678,CC1CCN(c2cc(-n3cnc(C(=O)NCc4ccco4)c3)ncn2)CC1
18,672,O=C(Cc1nnc(-c2ccc3ncccc3c2)o1)NCc1ccccc1
